{"source": "patent US20050282833A1", "about": "“Pharmacological treatment of psoriasis” (priority 2002, published 2005)", "molecules": {"B1": {"name": "daclizumab: monoclonal antibody masking the cellular receptor CD25 for IL-2 (antibody, chains of the INN, looked up, V domains shown)", "VH": "QVQLVQSGAEVKKPGSSVKVSCKASGYTFTSYRMHWVRQAPGQGLEWIGYINPSTGYTEYNQKFKDKATITADESTNTAYMELSSLRSEDTAVYYCARGGGVFDYWGQGTLVTVSS", "VL": "DIQMTQSPSTLSASVGDRVTITCSASSSISYMHWYQQKPGKAPKLLIYTTSNLASGVPARFSGSGSGTEFTLTISSLQPDDFATYYCHQRSTYPLTFGQGTKVEVK"}, "B2": {"name": "IL-10: cytokine, inhibitor of Th1-type cell priming and Th2-type mediator (protein, UniProt P22301 19-178, looked up)", "Interleukin-10": "SPGQGTQSENSCTHFPGNLPNMLRDLRDAFSRVKTFFQMKDQLDNLLLKESLLEDFKGYLGCQALSEMIQFYLEEVMPQAENQDPDIKAHVNSLGENLKTLRLRLRRCHRFLPCENKSKAVEQVKNAFNKLQEKGIYKAMSEFDIFINYIEAYMTMKIRN"}}, "key": {"cytomegalovirus (CMV)": {"test_system": "cytomegalovirus (CMV)", "conditions": "ranking among herpes viruses; cited from earlier work"}, "[1]": {"test_system": "human herpesvirus (HHV-6)", "conditions": "ranking among herpes viruses; cited from earlier work"}, "[2]": {"test_system": "patient with a history of plaque psoriasis", "assay": "Case study 1: valacyclovir treatment of a plaque psoriasis patient", "format": "in vivo, human", "method": "A patient with a history of plaque psoriasis over the last several years was diagnosed by their physician. Patient was treated with valacyclovir tablets at 500 mg taken 2 times a day for 20 days."}, "[3]": {"test_system": "patient with a history of reoccurring plaque psoriasis", "assay": "Case study 2: Valtrex (valacyclovir) treatment of a plaque psoriasis patient", "format": "in vivo, human", "conditions": "tablets 500 mg 3 times a day for several weeks, then 1.0 gram 3 times a day for several weeks; person", "method": "A person with a history of reoccurring plaque psoriasis over the last 30 years, as diagnosed by their physician, began treatment with […] (valacyclovir) tablets at 500 mg taken 3 times a day for several weeks. Dosage of […] increased to 1.0 gram taken 3 times a day for several weeks. Both the psoriatic lesions and other symptoms associated with psoriasis improved and cleared to 75-80% recovery."}, "patients with psoriasis [4]": {"test_system": "patients with psoriasis", "conditions": "cited from earlier work"}, "[5]": {"test_system": "patients with psoriatic lesions / psoriatic arthritis", "conditions": "cited from earlier work"}, "patients with psoriasis [6]": {"test_system": "patients with psoriasis", "conditions": "10 week trial, cited from earlier work"}, "pustular psoriasis": {"test_system": "pustular psoriasis", "conditions": "in vivo; cited from earlier work"}, "[7]": {"test_system": "patients with plaque psoriasis", "conditions": "after 8 weeks of therapy; cited from earlier work"}, "[8]": {"test_system": "psoriatic lesions of patients", "conditions": "once daily over 24 days; cited from earlier work"}}}
{"molecule": "Nc1nc2c(ncn2COCCO)c(=O)[nH]1", "note": "[acyclovir]", "values": [{"measurement": "activity against virus", "setting": "cytomegalovirus (CMV)", "result": "least active"}, {"measurement": "activity against virus", "setting": "[1]", "result": "least active"}]}
{"molecule": "CC(C)[C@H](N)C(=O)OCCOCn1cnc2c(=O)[nH]c(N)nc21", "note": "[valacyclovir]", "values": [{"measurement": "reoccurrence of the psoriatic symptoms", "setting": "[2]; since treatment ended", "result": "No reoccurrence"}, {"measurement": "recovery from the psoriasis", "setting": "[2]; tablets 500 mg 2 times a day for 20 days, person, plaque psoriasis", "result": "complete recovery"}, {"measurement": "recovery (psoriatic lesions and other symptoms improved and cleared)", "setting": "[3]", "result": "75-80%"}]}
{"molecule": "basiliximab", "values": [{"measurement": "long-lasting clearing of lesions after last treatment", "setting": "patients with psoriasis [4]; one patient with acute exacerbating psoriasis", "result": "more than 10 weeks"}, {"measurement": "improvement of lesions", "setting": "patients with psoriasis [4]; second patient with stable chronic plaque psoriasis", "result": "did not show improvement"}]}
{"molecule": "etanercept", "values": [{"measurement": "mean improvement of psoriatic lesions", "setting": "[5]; 12 weeks", "result": 46, "unit": "%"}, {"measurement": "response to treatment in patients diagnosed with psoriatic arthritis", "setting": "[5]; psoriatic arthritis", "result": 73, "unit": "%"}]}
{"molecule": "hu1124: anti-CD11a-antibody", "values": [{"measurement": "patients with headaches, chills, and fever", "setting": "patients with psoriasis [6]", "result": "over half of the patients"}, {"measurement": "improvement of psoriasis", "setting": "patients with psoriasis [6]; high dose group", "result": "only moderate improvement"}]}
{"molecule": "infliximab: monoclonal antibody directed against TNF-α", "values": [{"measurement": "treating and sustaining clearing of pustular psoriasis", "setting": "pustular psoriasis", "result": "highly effective"}]}
{"molecule": "B1", "values": [{"measurement": "patients experiencing a reduction in severity of plaque psoriasis", "setting": "[7]", "result": 30, "unit": "%"}]}
{"molecule": "B2", "values": [{"measurement": "improvement to psoriatic lesions", "setting": "[8]", "result": "some improvement"}]}
